Measured values reported in US9617256B2 (priority 2007, dated 2017).
Converted amounts (≈) assume the structure as drawn. Where two headings read alike, the source gives them in different places.

Legend:
AECO001 (ATCC25922) = assay: MIC broth microdilution, AECO001; type: cell-based, E. coli; conditions: Escherichia coli
Description: (§1) Bacterial isolates were cultivated from −70° C. frozen stocks by overnight passages at 35° C. in ambient air on Mueller-Hinton agar (Beckton Dickinson, Franklin Lakes, N.J.). Clinical isolates tested were obtained from various geographically diverse hospitals in the US and abroad (Focus Diagnostics, Herndon, Va. and JMI, North Liberty, Iowa). Quality control strains were from the American Type Culture Collection (ATCC; Rockville, Md.). Additional primary panel strains were generated using standard molecular biology techniques.
(§2) Minimum Inhibitory Concentrations (MICs) were determined by the broth microdilution method in accordance with the Clinical and Laboratory Standards Institute (CLSI) guidelines. In brief, organism suspensions were adjusted to a 0.5 McFarland standard to yield a final inoculum between 3×10^5 and 7×10^5 colony-forming units (CFU)/mL. Drug dilutions and inocula were made in sterile, cation adjusted Mueller-Hinton Broth (Beckton Dickinson). An inoculum volume of 100 μL was added to wells containing 100 μL of broth with 2-fold serial dilutions of drug. All inoculated microdilution trays were incubated in ambient air at 35° C. for 18-24 hours. […] Performance of the assay was monitored by the use of laboratory quality-control strains and levofloxacin, a compound with a defined MIC spectrum, in accordance with CLSI guidelines.
(§3) *AECO001 is ATCC25922, AECO063 is ATCC25922 bearing an acrAB mutation, APAE001 is ATCC27853, APAE006 is a strain of P. aeruginosa in which all efflux pumps are inactivated, APAE006+PMBN indicates MICs with the indicated strain in the presence of 8 micrograms per milliliter of polymyxin B nonapeptide, AABA1060 is a clinical isolate of Acinetobacter baumannii, ASAU001 is a laboratory strain of S. aureus (ATCC29213).

[1] = tested on: APAE006 (strain of P. aeruginosa in which all efflux pumps are inactivated); assay: microbe, parasite or virus in culture; type: cell-based; conditions: Pseudomonas aeruginosa, read-out: MIC APAE006, APAE006, all efflux pumps inactivated
Description: as §1, §2, §3

[2] = tested on: AECO063 (ATCC25922 bearing an acrAB mutation); assay: microbe, parasite or virus in culture; type: cell-based, E. coli; conditions: Escherichia coli, ATCC25922, read-out: MIC AECO063
Description: as §1, §2, §3

APAE001 (ATCC27853) = assay: MIC broth microdilution, APAE001; type: cell-based, P. aeruginosa; conditions: Pseudomonas aeruginosa, ATCC27853, read-out: MIC APAE001, APAE001 (ATCC27853)
Description: as §1, §2, §3

[3] = tested on: ASAU001 (laboratory strain of S. aureus, ATCC29213); assay: MIC broth microdilution, ASAU001; type: cell-based; conditions: Staphylococcus aureus, ATCC29213, read-out: MIC ASAU001
Description: as §1, §2, §3

[4] = tested on: APAE006 in the presence of 8 micrograms per milliliter of polymyxin B nonapeptide; type: cell-based, P. aeruginosa; conditions: APAE006 with 8 micrograms per milliliter polymyxin B nonapeptide
Description: as §1, §2, §3

[5] = tested on: AABA1060 (clinical isolate of Acinetobacter baumannii); assay: MIC broth microdilution, AABA1060; type: cell-based; conditions: Acinetobacter baumannii, read-out: MIC AABA1060
Description: as §1, §2, §3

[6] = ATCC25922, read-out: MIC AECO001
[7] = ATCC25922, read-out: MIC AECO001 HSA AGP

Structure (SMILES) | MIC (AECO001 (ATCC25922); [6]) [µg/mL] | MIC (AECO001 (ATCC25922); [7]) [µg/mL] | MIC [1] [µg/mL] | MIC [2] [µg/mL] | MIC (APAE001 (ATCC27853)) [µg/mL] | MIC [3] [µg/mL] | MIC APAE006 + PMBN [4] | MIC [5] [µg/mL]
CC(C)/C=C/C#Cc1ccc(C(=O)N[C@H](C(=O)NO)[C@@H](C)N)cc1 [Example 107-5] | < 2 | 2 to 16 (≈ 6.07 to 48.6 µM) | < 2 | < 2 | 2 to 16 (≈ 6.07 to 48.6 µM) | 2 to 16 (≈ 6.07 to 48.6 µM) | A (MIC's of 2.0 μg/mL or less = A) | < 2
C[C@@H](N)[C@H](NC(=O)c1ccc(C#Cc2ccc(COC3CC3)cc2)cc1)C(=O)NO [Example 123-1, N-((1S,2R)-2-Amino-1-hydroxycarbamoyl-propyl)-4-(4-cyclopropoxymethyl-phenylethynyl)-benzamide] | < 2 | 2 to 16 (≈ 4.91 to 39.3 µM) | < 2 | < 2 | 2 to 16 (≈ 4.91 to 39.3 µM) | 16 to 64 (≈ 39.3 to 157 µM) | A (MIC's of 2.0 μg/mL or less = A) | 2 to 16 (≈ 4.91 to 39.3 µM)
C[C@@H](N)[C@H](NC(=O)c1ccc(C#C/C=C/c2ccc(F)cc2)cc1)C(=O)NO [Example 106-6] | < 2 | 16 to 64 (≈ 41.9 to 168 µM) | < 2 | < 2 | 2 to 16 (≈ 5.24 to 41.9 µM) | 16 to 64 (≈ 41.9 to 168 µM) | A (MIC's of 2.0 μg/mL or less = A) | 2 to 16 (≈ 5.24 to 41.9 µM)
C[C@@H](N)[C@H](NC(=O)c1ccc(C#CC#Cc2ccc(CN3CCS(=O)(=O)CC3)cc2)cc1)C(=O)NO [Example 86-6] | < 2 | 2 to 16 (≈ 3.93 to 31.5 µM) | < 2 | < 2 | 2 to 16 (≈ 3.93 to 31.5 µM) | 16 to 64 (≈ 31.5 to 126 µM) | A (MIC's of 2.0 μg/mL or less = A) | 2 to 16 (≈ 3.93 to 31.5 µM)
C[C@@H](NCC(=O)N[C@H](C)[C@H](NC(=O)c1ccc(C#Cc2ccccc2)cc1)C(=O)NO)c1ccccc1 [Example 132-6] | 2 to 16 (≈ 4.01 to 32.1 µM) | 16 to 64 (≈ 32.1 to 128 µM) | < 2 | < 2 | 16 to 64 (≈ 32.1 to 128 µM) | 16 to 64 (≈ 32.1 to 128 µM) | A (MIC's of 2.0 μg/mL or less = A) | 16 to 64 (≈ 32.1 to 128 µM)
C[C@@H](N)[C@H](NC(=O)c1ccc(C#CC#CC2CCC2)cc1)C(=O)NO [Example 91-17] | < 2 | 2 to 16 (≈ 5.89 to 47.1 µM) | < 2 | < 2 | < 2 | 16 to 64 (≈ 47.1 to 189 µM) | A (MIC's of 2.0 μg/mL or less = A) | 2 to 16 (≈ 5.89 to 47.1 µM)
CC(C)(O)[C@H](NC(=O)c1ccc(C#C/C=C/c2ccncc2)cc1)C(=O)NO [Example 106-2] | < 2 | 2 to 16 (≈ 5.27 to 42.2 µM) | < 2 | < 2 | 2 to 16 (≈ 5.27 to 42.2 µM) | 16 to 64 (≈ 42.2 to 169 µM) | A (MIC's of 2.0 μg/mL or less = A) | 2 to 16 (≈ 5.27 to 42.2 µM)
C[C@@H](N)[C@H](NC(=O)c1ccc(/C=C/C#CC2CC2)cc1)C(=O)NO [Example 114-15] | 2 to 16 (≈ 6.11 to 48.9 µM) | 16 to 64 (≈ 48.9 to 195 µM) | < 2 | < 2 | < 2 | 16 to 64 (≈ 48.9 to 195 µM) | A (MIC's of 2.0 μg/mL or less = A) | 2 to 16 (≈ 6.11 to 48.9 µM)
CC(C)(N)[C@H](NC(=O)c1ccc(C#C/C=C/c2ccc(CNC3CC3)cc2)cc1)C(=O)NO [Example 102-6] | < 2 | 2 to 16 (≈ 4.48 to 35.8 µM) | < 2 | < 2 | < 2 | 16 to 64 (≈ 35.8 to 143 µM) | A (MIC's of 2.0 μg/mL or less = A) | 2 to 16 (≈ 4.48 to 35.8 µM)
CC(C)(N)C(NC(=O)c1ccc(C#CC#Cc2ccncc2)cc1)C(=O)NO (stereo not shown) [Example 88-6] | < 2 | 2 to 16 (≈ 5.31 to 42.5 µM) | < 2 | < 2 | 2 to 16 (≈ 5.31 to 42.5 µM) | 16 to 64 (≈ 42.5 to 170 µM) | A (MIC's of 2.0 μg/mL or less = A) | 2 to 16 (≈ 5.31 to 42.5 µM)
CC(C)(N)[C@H](NC(=O)c1ccc(C#CC#CCC2CCCC2)cc1)C(=O)NO [Example 91-23] | < 2 | 2 to 16 (≈ 5.24 to 41.9 µM) | < 2 | < 2 | 2 to 16 (≈ 5.24 to 41.9 µM) | 2 to 16 (≈ 5.24 to 41.9 µM) | A (MIC's of 2.0 μg/mL or less = A) | 2 to 16 (≈ 5.24 to 41.9 µM)
